Reference: PMC2898832, “Active site plasticity revealed from the structure of the enterobacterial N-ribohydrolase RihA bound to a competitive inhibitor” (2010)

Target: T1, RihA (Escherichia coli, UniProt P41409)
T1 construct: full-length rihA (936 bp) from E. coli K12 derivative DH5α; N-terminal His-tag removed with thrombin; tetramer
Experiment: X-ray co-crystal structure at […] Å; KI from competitive inhibition of uridine hydrolysis by purified enzyme
Assay type: biochemical

T1 sequence (P41409 whole entry): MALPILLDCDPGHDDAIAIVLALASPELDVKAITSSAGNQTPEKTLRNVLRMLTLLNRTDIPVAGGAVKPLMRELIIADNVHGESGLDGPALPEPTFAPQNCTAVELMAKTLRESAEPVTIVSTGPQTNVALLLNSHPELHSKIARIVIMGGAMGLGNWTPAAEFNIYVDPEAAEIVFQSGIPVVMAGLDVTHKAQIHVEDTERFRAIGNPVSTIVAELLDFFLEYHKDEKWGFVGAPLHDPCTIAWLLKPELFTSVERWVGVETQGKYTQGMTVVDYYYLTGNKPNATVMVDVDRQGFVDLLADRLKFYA

Work on `Nc1ccc([C@@H]2N[C@H](CO)[C@@H](O)[C@H]2O)cc1N` [DAPIR] yielded a Ki of 85 ± 7 µM.
